Source: article PMC6054517, “Design and synthesis of novel oridonin analogues as potent anticancer agents” (Journal of Enzyme Inhibition and Medicinal Chemistry, 2018)
Like-named read-outs stand apart in the source and are kept apart here.

Tests used:
MGC803 = experiment: MTT antiproliferative assay, MGC803 cells; type: cell-based, human; conditions: MTT, 48 h, means ± SD, n = 3
From the text: (§1) Human gastric cancer (AGS), human differentiation of advanced gastric cancer (MGC803), human colorectal cancer (HCT116), human lung cancer (A549), human hepatocellular carcinoma (Bel7402) and human cervical cancer (HeLa) cell lines were obtained from the State Key Laboratory of Natural Resources and Functional Molecules of the Changbai Mountain (Yanbian University) and maintained in Dulbecco’s modified Eagle’s medium and RPMI Media 1640 (RPMI1640), supplemented with 10% foetal bovine serum 100 IU/ml penicillin, […] and 2 mmol/l L-glutamine (Sigma) at 37 °7 in a humidified atmosphere containing 5% CO2.
(§2) All six human cancer cell lines and normal L02 cells were seeded in 96-well plates at the appropriate densities to ensure exponential growth throughout the experimental period (9 × 10^3 cells per well) and then allowed to adhere for 24 h. The cells were then treated for 48 h with four serial dilutions (100, 50, 10, and 1 µM) of each compound. 5-Fluorouracil (5-FU) was used as the positive control. After incubation for 48 h, 10 µl MTT solution was added to each well to give a final concentration of 2 mg ml^−1. The plates were then incubated for further 4 h. After incubation, the MTT solution was removed and 150 µl DMSO was added to each well to solubilise the formed product. To ensure complete solubilisation, the plates were shaken vigorously for 10 min at room temperature. The optometric density (OD) was read on a microplate reader (ELx800, BioTek, Highland Park, Winooski, VT) at a wavelength of 492 nm and the data were subsequently analysed. The percentage of cell growth inhibition was calculated from the following equation: inhibitory rate (%) = [1–(ODtreated–ODblank)/(ODcontrol–ODblank)] × 100.
(§3) The MTT assay was performed using a standard protocol.

A549 = experiment: MTT antiproliferative assay, A549 cells; type: cell-based, human; conditions: MTT, 48 h, means ± SD, n = 3
From the text: as §1, §2, §3

HCT116 = experiment: MTT antiproliferative assay, HCT116 cells; type: cell-based, human; conditions: MTT, 48 h, means ± SD, n = 3
From the text: as §1, §2, §3

AGS = experiment: MTT antiproliferative assay, AGS cells; type: cell-based, human; conditions: 48 h, MTT, means ± SD, n = 3
From the text: as §1, §2, §3

Bel7402 = experiment: MTT antiproliferative assay, Bel7402 cells; type: cell-based, human; conditions: MTT, 48 h, means ± SD, n = 3
From the text: as §1, §2, §3

Hela = experiment: MTT antiproliferative assay, HeLa cells; type: cell-based, human; conditions: MTT, 48 h, means ± SD, n = 3
From the text: as §1, §2, §3

[1] = tested on: AGS, MGC803, Bel7402, HCT116, A549, and HeLa; experiment: MTT assay, overall statement on six tumour cell lines; type: cell-based, human; conditions: six cancer cell lines
From the text: as §1, §2, §3

A549 cells = conditions: cited from earlier work

| Molecule | IC50 (MGC803; Homo sapiens, MGC-803) [µM] | IC50 (A549; Homo sapiens, A549) [µM] | IC50 (HCT116; Homo sapiens, HCT-116, 48 h) [µM] | IC50 (AGS; Homo sapiens, AGS) [µM] | IC50 (Bel7402; Homo sapiens, Bel-7402) [µM] | IC50 (Hela; Homo sapiens, HeLa) [µM] | antiproliferative activities against the six tumour cell lines (in words) [1] | IC50 (A549 cells; A549 cells) [µM] | IC50 (A549 cells; A549) [µM] | IC50 (MGC803) [µM] | IC50 (A549) [µM] | IC50 (HCT116) [µM] | IC50 (AGS) [µM] | IC50 (Bel7402) [µM] | IC50 (Hela) [µM] |
| --- | --- | --- | --- | --- | --- | --- | --- | --- | --- | --- | --- | --- | --- | --- | --- |
| COc1cc(/C=C2/C(=O)[C@]34[C@H](O)[C@H]2CC[C@H]3C23CO[C@]4(O)[C@@H](O)[C@@H]2C(C)(C)CC[C@@H]3O)cc(OC)c1OC [Compound 2n, (1S,4aR,5S,6S,6aR,9S,11aS,14R,E)-1,5,6,14-tetrahydroxy-4,4-dimethyl-8-(3,4,5-trimethoxybenzylidene)decahydro-1H-6,11b-(epoxymethano)-6a,9-methanocyclo-hepta[a]naphthalen-7(8H)-one] | 28 ± 1.73 | 15.8 ± 1.47 | 18.6 ± 1.78 | 17.3 ± 2.41 | 14.6 ± 1.21 | 8.89 ± 0.94 |  |  |  |  |  |  |  |  |  |
| CCCOc1ccc(/C=C2/C(=O)[C@]34[C@H](O)[C@H]2CC[C@H]3C23CO[C@]4(O)[C@@H](O)[C@@H]2C(C)(C)CC[C@@H]3O)cc1 [Compound 2o, (1S,4aR,5S,6S,6aR,9S,11aS,14R,E)-1,5,6,14-tetrahydroxy-4,4-dimethyl-8-(4-propoxybenzylidene)decahydro-1H-6,11b-(epoxymethano)-6a,9-methanocyclohepta-[a]naphthalen-7(8H)-one] | 10.9 ± 1.39 | 15.3 ± 1.31 | 3.09 ± 0.41 | 10 ± 1.88 | 6.54 ± 0.94 | 8.21 ± 1.2 |  |  |  |  |  |  |  |  |  |
| CC(C)=CCOc1cccc(/C=C2/C(=O)[C@]34[C@H](O)[C@H]2CC[C@H]3C23CO[C@]4(O)[C@@H](O)[C@@H]2C(C)(C)CC[C@@H]3O)c1 [Compound 2q, (1S,4aR,5S,6S,6aR,9S,11aS,14R,E)-1,5,6,14-tetrahydroxy-4,4-dimethyl-8-(3-((3-methylbut-2-en1yl)oxy)benzylidene)decahydro-1H-6,11b-(epoxymethano)-6a,9-methanocyclohepta[a]naphthalen-7(8H)-one] | 9.1 ± 1.72 | 4.66 ± 0.3 | 7.63 ± 0.81 | 3.1 ± 0.41 | 8.62 ± 1.12 | 5.43 ± 0.85 |  |  |  |  |  |  |  |  |  |
| CC1(C)CC[C@H](O)C23CO[C@](O)([C@@H](O)[C@H]12)[C@]12C(=O)/C(=C/c4ccc(N)cc4)[C@H](CC[C@@H]31)[C@H]2O [Compound 2s, (1S,4aR,5S,6S,6aR,9S,11aS,14R,E)-8-(4-aminobenzylidene)-1,5,6,14-tetrahydroxy-4,4-dimethyldecahydro-1H-6,11b-(epoxymethano)-6a,9-methanocyclohepta[a]-naphthalen-7(8H)-one] | 53.2 ± 4.05 | 99.8 ± 7.45 | 10 ± 1.13 | 51 ± 3.34 | 7 ± 1.05 | > 100 | poor antiproliferative activities |  |  |  |  |  |  |  |  |
| CC(=O)Nc1ccc(/C=C2/C(=O)[C@]34[C@H](O)[C@H]2CC[C@H]3C23CO[C@]4(O)[C@@H](O)[C@@H]2C(C)(C)CC[C@@H]3O)cc1 [Compound 2t, N-(4-((E)-((1S,4aR,5S,6S,6aR,9S,11aS,14R)-1,5,6,14-tetrahydroxy-4,4-dimethyl-7-oxodecahydro-1H-6,11b-(epoxymethano)-6a,9-methanocyclohepta[a]naphthalen-8(7H)-ylidene)methyl)phenyl)acetamide] | 10 ± 0.84 | 97.1 ± 5.93 | 47.9 ± 3.91 | 22.1 ± 1.04 | 14.6 ± 1.66 | > 100 | poor antiproliferative activities |  |  |  |  |  |  |  |  |
| CC1(C)CC[C@H](O)C23CO[C@](O)([C@@H](O)[C@H]12)[C@]12C(=O)/C(=C/c4ccc(NC(=O)c5ccccc5)cc4)[C@H](CC[C@@H]31)[C@H]2O [Compound 2u, N-(4-((E)-((1S,4aR,5S,6S,6aR,9S,11aS,14R)-1,5,6,14-tetrahydroxy-4,4-dimethyl-7-oxodecahydro-1H-6,11b-(epoxymethano)-6a,9-methanocyclohepta[a]naphthalen-8(7H)-ylidene)methyl)phenyl)benzamide] | 12.2 ± 0.94 | 21.5 ± 1.88 | 4.02 ± 0.33 | 12 ± 1.99 | 7.35 ± 1.28 | 9.79 ± 1.08 |  |  |  |  |  |  |  |  |  |
| CC1(C)CC[C@H](O)C23CO[C@](O)([C@@H](O)[C@H]12)[C@]12C(=O)/C(=C/c4ccccc4O)[C@H](CC[C@@H]31)[C@H]2O [Compound 2v, (1S,4aR,5S,6S,6aR,9S,11aS,14R,E)-1,5,6,14-tetrahydroxy-8-(2-hydroxybenzylidene)-4,4-dimethyldecahydro-1H-6,11b-(epoxymethano)-6a,9-methanocyclohepta[a]naphthalen-7(8H)-one] | 32.9 ± 2.31 | > 100 | 28.2 ± 2.67 | 30.3 ± 2.24 | 60.3 ± 4.14 | > 100 | poor antiproliferative activities |  |  |  |  |  |  |  |  |
| CC1(C)CC[C@H](O)C23CO[C@](O)([C@@H](O)[C@H]12)[C@]12C(=O)/C(=C/c4cccc(O)c4)[C@H](CC[C@@H]31)[C@H]2O [Compound 2w, (1S,4aR,5S,6S,6aR,9S,11aS,14R,E)-1,5,6,14-tetrahydroxy-8-(3-hydroxybenzylidene)-4,4-dimethyldecahydro-1H-6,11b-(epoxymethano)-6a,9-methanocyclohepta[a]naphthalen-7(8H)-one] | > 100 | > 100 | 22.1 ± 3.28 | > 100 | > 100 | > 100 | poor antiproliferative activities |  |  |  |  |  |  |  |  |
| CC1(C)CC[C@H](O)C23CO[C@](O)([C@@H](O)[C@H]12)[C@]12C(=O)/C(=C/c4ccc(O)cc4)[C@H](CC[C@@H]31)[C@H]2O [Compound 2x, (1S,4aR,5S,6S,6aR,9S,11aS,14R,E)-1,5,6,14-tetrahydroxy-8-(4-hydroxybenzylidene)-4,4-dimethyldecahydro-1H-6,11b-(epoxymethano)-6a,9-methanocyclohepta[a]naphthalen-7(8H)-one] | > 100 | > 100 | 30.1 ± 3.57 | > 100 | > 100 | > 100 | poor antiproliferative activities |  |  |  |  |  |  |  |  |
| CC1(C)CCC(O)C23COC(O)(C(O)C12)C12C(=O)C(=Cc4ccc5ccccc5c4)C(CCC31)C2O [Compound 2y, (1S,4aR,5S,6S,6aR,9S,11aS,14R,E)-1,5,6,14-tetrahydroxy-4,4-dimethyl-8-(napht-halen-2-ylmethylene)decahydro-1H-6,11b-(epoxymethano)-6a,9-methanocyclohepta[a]naphthalen-7(8H)-one] | 21 ± 1.24 | 12.6 ± 1.39 | 17.5 ± 1.44 | 55 ± 4.43 | 51.2 ± 5.43 | 26 ± 1.48 |  |  |  |  |  |  |  |  |  |
| C/C1=C\[C@H]2OC(=O)/C(=C/c3ccc(Cl)cc3)[C@@H]2CC/C(C)=C/CC1 [Compound 3] |  |  |  |  |  |  |  | 15.7 |  |  |  |  |  |  |  |
| O=c1[nH]cc(F)c(=O)[nH]1 [Compound 5-FU, 5-Fluorouracil, reference compound] | 30.5 ± 4.42 | 23.7 ± 3.14 | 24.8 ± 2.08 | 29.6 ± 3.4 | 21.3 ± 2.43 | 34.6 ± 3.14 |  |  |  |  |  |  |  |  |  |
| CCOc1cccc2c1OC(C(=O)/C=C/c1ccc(N(C)C)cc1)C2 (stereo not shown) [Compound 5] |  |  |  |  |  |  |  |  | 9 |  |  |  |  |  |  |
| (1S,4aR,5S,6S,6aR,9S,11aS,14R,E)-8-(4-(((Z)-3,6-dimethylhepta-2,5-dien1yl)oxy)benzylidene)-1,5,6,14-tetrahydroxy-4,4-dimethyldecahydro-1H-6,11b-(epoxymethano)-6a,9-methanocyclohepta[a]naphthalen-7(8H)-one [Compound 2r] |  |  |  |  |  |  |  |  |  | 6.86 ± 1.24 | 4.16 ± 0.45 | 2.39 ± 0.19 | 13.7 ± 2.63 | 8.45 ± 1.32 | 9.85 ± 2.03 |
